Laboratory results: publication PMC10958225, “Therapeutic potential of orally applied KB-R7943 in streptozotocin-induced neuropathy in rats” (Heliyon, 2024)

Legend:
[1] = test system: STZ-treated rats with neuropathy; assay: Forced swim test (FST); assay type: in vivo, rat; conditions: 10 mg/kg p.o. once daily from day 28, test on day 41, 5-min test
Method: (§1) On the day of diabetic state induction, rats were deprived of food for 6 h (from 8 a.m. to 2 p.m.). A single i.p. injection was applied with 55 mg/kg STZ in the ice-cold citrate buffer (0.1 M pH 4.4). The observed polydipsia, polyuria, reduced thriving with lower body weight, and poor coating appearance indirectly indicated the development of diabetes. On day 28, after 6 h of fasting, blood glucose was measured with an Xpress Statstrip Glucometer (Nova Biomedical Corporation, Waltham, MA, USA) from the tail vein. A cut-off value of blood glucose >13 mmol/l was adopted. […] Controls were once i.p. injected with ice-cold citrate buffer 0.1 M pH 4.4 only.
(§2) Three animals per cage were housed for the experiment 2 (Fig. 3B). Rats were gently manipulated daily before undertaking the actual behavior tests. […] Body weight (BW), coat score (CS), CPT, R–S, and FT were evaluated on day 28th post-STZ, and after that, rats were distributed into the treatment groups as follows. • C-Veh – Controls, vehiculum treatment (n = 12) • NP-Veh – STZ-treated rats with neuropathy, vehiculum treatment (n = 12) • NP-KB-R7943 – 5 mg - STZ-treated rats, with neuropathy, KB-R7943 5 mg/kg treatment (n = 12) • NP-KB-R7943 – 10 mg – STZ-treated rats, with neuropathy, KB-R7943 10 mg/kg (n = 12) • NP-AMT – 10 mg - STZ-treated rats, with neuropathy, amitriptyline 10 mg/kg (n = 12). […]

[2] = test system: STZ-treated rats with neuropathy; assay: 24-hour spontaneous physical activity; assay type: in vivo, rat; conditions: 5 mg/kg p.o. once daily from day 28, from day 41
Method: as §1, §2

[3] = test system: STZ-treated rats with neuropathy; assay: Formalin test (0.5% formalin); assay type: in vivo, rat
Method: as §1
(§3) Three animals per cage were housed for the experiment 2 (Fig. 3B). Rats were gently manipulated daily before undertaking the actual behavior tests. One week after adaptation, the Randl-Stellito (R–S) test, cold plate test (CPT), and formalin tests (FT) were performed at baseline. After that, the diabetes model was made with 48 rats. Twelve animals served as controls. Body weight (BW), coat score (CS), CPT, R–S, and FT were evaluated on day 28th post-STZ, and after that, rats were distributed into the treatment groups as follows. • C-Veh – Controls, vehiculum treatment (n = 12) • NP-Veh – STZ-treated rats with neuropathy, vehiculum treatment (n = 12) • NP-KB-R7943 – 5 mg - STZ-treated rats, with neuropathy, KB-R7943 5 mg/kg treatment (n = 12) • NP-KB-R7943 – 10 mg – STZ-treated rats, with neuropathy, KB-R7943 10 mg/kg (n = 12) • NP-AMT – 10 mg - STZ-treated rats, with neuropathy, amitriptyline 10 mg/kg (n = 12).
(§4) OraPlus was used as a vehiculum for gavage (16 gauge feeding tube 10 ml/kg) in all rats. KB-R7943 in two doses (5 or 10 mg/kg) or amitriptyline 10 mg/kg was applied once daily until day 49. Behavior tests were performed […] after the oral gavage of the corresponding day, in the afternoon, starting from 2 p.m. […] On day 41, an FST was performed, and at 2 p.m., rats were placed individually for 24 h to assess spontaneous physical activity. After that, on day 42, the same battery of the tests as on day 28 were reassessed.
The formalin test was performed 1 h after the R–S test to decrease the interaction with the mechanical stimulus from the previous test. For the same reason, the left hind paws were injected. A needle (U-100 Insulin Syringe, Beckton and Dickinson, Dublin, Ireland) was used. A low-dose intraplantar injection of formalin 50 mcl 0.5% was done, and rats were placed in individual transparent cases for observation. Two independent observers measured the time spent licking or biting the injected paw, and the first (0–5 min) and the second post-injection phase (20–30 min) were reported in sec.

[4] = test system: STZ-treated rats with neuropathy; assay: Mortality and adverse effects during chronic oral treatment; assay type: in vivo; conditions: rat, in vivo, po
Method: as §3
as §4, with “After that, on day 42, the same battery of the tests as on day 28 were reassessed.” left out

For N=C(N)SCCc1ccc(OCc2ccc([N+](=O)[O-])cc2)cc1 [KB-R7943, [(2-{4-[(4-nitrophenyl)methoxy]phenyl}ethyl)sulfanyl]methanimidamide], the “immobility time in FST” value [1] was 131.67 ± 29.80 s, the “24-h spontaneous physical activity” value [2] was 1705.92 ± 237.74 beam breaks and the “effect on formalin test first phase (0–5 min)” value ([3]; 5 mg/kg p.o. once daily, vs. 10 mg/kg groups) was “weaker effect”. The “effect on formalin test first phase (0–5 min)” value ([3]; 10 mg/kg p.o. once daily, vs. NP-Veh) was “attenuated”, the “effect on formalin test second phase (20–30 min)” value ([3]; amitriptyline 10 mg/kg, KB-R7943 5 and 10 mg/kg p.o. once daily, vs. NPveh, dose-dependent) was “attenuated” and the mortality during treatment [4] was “No one rat died”.
